From patent EP0342577B1, “Use of dihydropyridine derivatives for the prophylaxis or treatment of cerebral circulation disorders” (YOSHITOMI PHARMACEUTICAL INDUSTRIES, LTD., priority 1988, dated 1989)

What was measured:
[1] = test system: Cerebral blood flow amount; experiment: Selectivity in cerebral hyperkinemic action: cerebral blood flow amount (electromagnetic flow meter, left vertebral artery); assay type: in vivo; conditions: dogs, intravenous; for Cerebral blood flow amount ED200: dose at which the rate of increase is 200%
Experimental: (§1) The selectivity in cerebral hyperkinemic action was studied by examining the rates of increase in coronary blood flow amount and cerebral blood flow amount as to various dihydropyridine derivatives.
(§2) Various dihydropyridine derivatives were intravenously administered to dogs (weighing 9 - 16 kg, 4 animals per group) at a dose of 1 - 100 µg/kg body weight. At the lapse of 1, 3, 5, 10, 30, 60, 90 and 120 minutes after the intravenous administration, the coronary blood flow amount and cerebral blood flow amount were measured, and the rates of increase in the blood flow amount were estimated.
(§3) Cerebral blood flow was measured by equipping the left vertebral artery with the probe of the electromagnetic flow meter, and recorded continuously on the polygraph.
(§4) The ED200 (µg/kg body weight) indicates the dose at which the rate of increase is 200%.

[2] = test system: Coronary blood flow amount; experiment: Selectivity in cerebral hyperkinemic action: coronary blood flow amount (electromagnetic flow meter, left coronary artery circumflex ramus); assay type: in vivo; conditions: dogs, intravenous; for Coronary blood flow amount ED200: dose at which the rate of increase is 200%
Experimental: as §1, §2
Coronary blood flow was measured by equipping the left coronary artery circumflex ramus with the probe of the electromagnetic flow meter, and recorded on the polygraph.
as §4

[3] = test system: Cerebral blood flow amount; experiment: Duration time of cerebral hyperkinemic action: cerebral blood flow with the lapse of time; assay type: in vivo; design: unit not given here; conditions: dogs, intravenous, 30 µg/kg body weight
Experimental: as §2, §3
By examining the rate of increase in cerebral blood flow by various dihydropyridine derivatives with the lapse of time, the duration of cerebral hyperkinemic action was studied.

[4] = test system: both common carotid arteries-ligated rats; experiment: Inhibitory effect on symptoms of both common carotid arteries-ligated rats; assay type: in vivo, Spontaneously hypertensive rats (SHR·SR); conditions: SHR·SR rats, oral, dose 0.1 mg/kg, given one hour before ligation; neural symptom score 0 (normal) to 4 (death) two hours after skin suture; control (None) 2.8
Experimental: Spontaneously hypertensive rats (SHR·SR; Japan Charles River Co.) were used for the experiment (9-10 rats per group).
The compound 2-2 of the present invention was orally administered forsively to the rats at a dose of 10 ml/kg. To the control group was administered 0.3% Tween® 80 solely at a dose of 10 ml/kg. One hour later, cervical part was incised and both common carotid arteries were ligated with a suture thread almost simultaneously. Two hours after skin suture, observation was made for their neural symptom and/or death. The results are expressed in five-rank scores below.

| SMILES | Cerebral blood flow amount Increase rate (%) ([1]; dose 10 µg/kg body weight) | Cerebral blood flow amount Increase rate (%) ([1]; dose 30 µg/kg body weight) | Cerebral blood flow amount Increase rate (%) ([1]; dose 100 µg/kg body weight) | Cerebral blood flow amount ED200 [1] [µg/kg body weight] | Coronary blood flow amount Increase rate (%) ([2]; dose 10 µg/kg body weight) | Coronary blood flow amount Increase rate (%) ([2]; dose 30 µg/kg body weight) | Coronary blood flow amount Increase rate (%) ([2]; dose 100 µg/kg body weight) | Coronary blood flow amount ED200 [2] [µg/kg body weight] | Rate of increase in cerebral blood flow amount ([3]; 5 min after administration) | Rate of increase in cerebral blood flow amount ([3]; 10 min after administration) | Rate of increase in cerebral blood flow amount ([3]; 30 min after administration) | Rate of increase in cerebral blood flow amount ([3]; 60 min after administration) | Rate of increase in cerebral blood flow amount ([3]; 120 min after administration) | Average score [4] | Cerebral blood flow amount Increase rate (%) ([1]; dose 3 µg/kg body weight) | Coronary blood flow amount Increase rate (%) ([2]; dose 3 µg/kg body weight) | Cerebral blood flow amount Increase rate (%) ([1]; dose 1 µg/kg body weight) | Coronary blood flow amount Increase rate (%) ([2]; dose 1 µg/kg body weight) |
| --- | --- | --- | --- | --- | --- | --- | --- | --- | --- | --- | --- | --- | --- | --- | --- | --- | --- | --- |
| COC(=O)C1=C(C)NC(C)=C(C(=O)OCCc2ccc(N3CCN(C(c4ccccc4)c4ccccc4)CC3)cc2)C1c1cc(C#N)ccn1 (stereo not drawn) [Compound 1-2, 2-[p-(4-Benzhydrylpiperazino)phenyl]ethyl methyl 2,6-dimethyl-4-(4-cyano-2-pyridyl)-1,4-dihydropyridine-3,5-dicarboxylate] | 186 | 223 | 385 | 15 | 131 | 156 | 246 | 48 | 183 | 222 | 190 | 151 | 132 |  |  |  |  |  |
| COC(=O)C1=C(C)NC(C)=C(C(=O)OCCc2ccc(N3CCN(C(c4ccccc4)c4ccccc4)CC3)cc2)C1c1cccc([N+](=O)[O-])c1 (stereo not drawn) [Compound 2-2, 2-[p-(4-Benzhydrylpiperazino)phenyl]ethyl methyl 2,6-dimethyl-4-(3-nitrophenyl)-1,4-dihydropyridine-3,5-dicarboxylate] | 197 | 301 | 433 | 11 | 125 | 174 | 207 | 75 | 137 | 170 | 285 | 300 | 237 | 1.7 |  |  |  |  |
| COC(=O)C1=C(C)NC(C)=C(C(=O)OCCN(C)Cc2ccccc2)C1c1cccc([N+](=O)[O-])c1 (stereo not drawn) [Nicardipine, reference compound] | 197 | 238 |  | 9.7 | 206 | 240 |  | 9.7 | 237 | 189 | 129 | 109 |  |  | 165 | 154 |  |  |
| COCCOC(=O)C1=C(C)NC(C)=C(C(=O)OC(C)C)C1c1cccc([N+](=O)[O-])c1 (stereo not drawn) [Nimodipine, reference compound] | 196 |  |  | 13 | 191 |  |  | 16 | 163 | 152 | 129 | 113 |  |  | 167 | 141 | 146 | 125 |
